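Assay format: 96-well plates, 48-hour exposure. Abbreviation: GI50, concentration required for 50% inhibition of growth.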 Activity calls are given as the source filed them. No stated cut-off is given here; in the data, active = GI50 up to about 1.1 µM and inactive = higher. A value given as a limit tells only on which side of the number the result lay.

Consider eleven compounds from ChEMBL document CHEMBL1201862, “PubChem BioAssay data set” (2004).

Test systems include 786-0; A498; ACHN; CCRF-CEM; HCC 2998; HCT-116; HOP-92; K562; KM12; LOX IMVI; M14; MOLT-4; OVCAR-3; RXF 393; SF-539; SN12C; U-251; UO-31; NCI/ADR-RES; MCF7.
Common to all, as to assay: growth of human tumour cells (NCI), 48 h

Take `Oc1cc(-c2cccs2)nc2cc3c(cc12)OCO3`: the GI50 with 786-0 is 3.78 µM (inactive); in the assay with A498, 3.17 µM (inactive); in the assay with ACHN it was 7.31 µM (inactive); in the assay with CCRF-CEM, 3.66 µM (inactive); with HCC 2998, 7.13 µM (inactive); in the assay on HCT-116 it was 4.14 µM (inactive). In addition, the GI50 is > 100 µM (inactive) with HOP-92; 2.42 µM (inactive) in the assay on K562; 2.45 µM (inactive) in the assay on KM12; 4.92 µM (inactive) with LOX IMVI; 2.55 µM (inactive) with M14; 4.52 µM (inactive) in the assay on MOLT-4. Further, the GI50 is 4.63 µM (inactive) in the assay on OVCAR-3; 1.9 µM (inactive) with RXF 393; 3.7 µM (inactive) in the assay with SF-539; 6.76 µM (inactive) with SN12C; 7.43 µM (inactive) with U-251; 4.69 µM (inactive) with UO-31.
For `C=C1C2CC3CCC2C(OC(=O)c2ccccc2C(=O)O)C13` (configuration not stated), the GI50 in the assay with 786-0, in the assay with A498, in the assay on ACHN, with CCRF-CEM, in the assay on HCC 2998 and with HCT-116 was > 100 µM (inactive) each time. In addition, the GI50 in the assay on HOP-92, with K562, in the assay on KM12, with LOX IMVI, in the assay with M14 and in the assay with MOLT-4 was > 100 µM (inactive) throughout. In addition, the GI50 in the assay on NCI/ADR-RES was > 100 µM (inactive); in the assay on OVCAR-3, 95.9 µM (inactive); with RXF 393, > 100 µM (inactive); in the assay on SF-539 it was > 100 µM (inactive); with SN12C it was > 100 µM (inactive); in the assay on U-251, > 100 µM (inactive). In addition, the GI50 in the assay with UO-31 was > 100 µM (inactive).
On to `CCSc1nc2sc(C)c(C)c2c(=O)n1-c1ccc(C(=O)O)cc1`, for which the GI50 with 786-0 was > 100 µM (inactive); with A498 it was 29.9 µM (inactive); in the assay with ACHN, 79.6 µM (inactive); in the assay on CCRF-CEM, 52.5 µM (inactive); with HCC 2998 it was 85.1 µM (inactive); in the assay with HCT-116 it was 22.7 µM (inactive). Besides, the GI50 in the assay with HOP-92 is > 100 µM (inactive); with K562, 55.5 µM (inactive); in the assay on KM12, 54.8 µM (inactive); in the assay with LOX IMVI, 56.2 µM (inactive); in the assay on M14, > 100 µM (inactive); with MOLT-4, 48.5 µM (inactive). The GI50 in the assay on OVCAR-3 was 24.8 µM (inactive); in the assay with RXF 393, 25.5 µM (inactive); in the assay on SF-539 it was 18.8 µM (inactive); in the assay with SN12C, 55.1 µM (inactive); with U-251, 55.5 µM (inactive); with UO-31, 25.1 µM (inactive).
For the compound `COc1cc([C@@H]2c3cc4c(cc3[C@@H](NCc3ccc(C#N)cc3)C3COC(=O)[C@@H]32)OCO4)cc(OC)c1O` (some centres not stated), the GI50 in the assay on 786-0 was 0.632 µM (active); with A498, 1.07 µM (active); with ACHN it was 0.272 µM (active); with CCRF-CEM it was 0.233 µM (active); in the assay with HCC 2998, 1.57 µM (inactive); in the assay with HCT-116 it was 1.19 µM (inactive). Besides, the GI50 was 1.88 µM (inactive) in the assay with HOP-92; 1.54 µM (inactive) in the assay on K562; 1.4 µM (inactive) in the assay on KM12; 0.778 µM (active) in the assay with LOX IMVI; 1.1 µM (active) with M14; 0.0512 µM (active) in the assay on MOLT-4. In addition, the GI50 in the assay with OVCAR-3 is 2.16 µM (inactive); in the assay on RXF 393 it was 2.96 µM (inactive); in the assay with SF-539, 0.877 µM (active); in the assay on SN12C, 0.414 µM (active); in the assay on U-251, 0.123 µM (active); in the assay on UO-31, 1.61 µM (inactive).
As for `O=C(O)CSC(NC(=O)C(C(F)(F)F)C(F)(F)F)(C(F)(F)F)C(F)(F)F`, the GI50 in the assay with 786-0 was > 100 µM (inactive); with A498, 71 µM (inactive); in the assay with ACHN, > 100 µM (inactive); in the assay on CCRF-CEM, > 100 µM (inactive); in the assay with HCC 2998, > 100 µM (inactive); in the assay with HCT-116 it was > 100 µM (inactive). The GI50 is > 100 µM (inactive) in the assay with K562; > 100 µM (inactive) in the assay with LOX IMVI; > 100 µM (inactive) in the assay with M14; > 100 µM (inactive) with MOLT-4; > 100 µM (inactive) in the assay on NCI/ADR-RES; 28.4 µM (inactive) in the assay on RXF 393. The GI50 in the assay on SF-539, in the assay with SN12C, with U-251 and in the assay on UO-31 was > 100 µM (inactive) throughout.
On to `O=C(O)c1nc(-c2ccccn2)c(-c2ccccn2)nc1C(=O)O`, for which the GI50 with 786-0 was 2.61 µM (inactive); in the assay with A498, 1.61 µM (inactive); in the assay on ACHN, 0.678 µM (active); in the assay with CCRF-CEM, 2.44 µM (inactive); in the assay on HCC 2998, 0.773 µM (active); in the assay on HCT-116 it was 1.67 µM (inactive). For the same compound, the GI50 in the assay with HOP-92 is 9.51 µM (inactive); in the assay with K562, 3.66 µM (inactive); in the assay on KM12, 2.75 µM (inactive); with LOX IMVI, 2.07 µM (inactive); with M14, 1.42 µM (inactive); in the assay with MOLT-4, 2.3 µM (inactive). For the same compound, the GI50 in the assay with NCI/ADR-RES is 2.75 µM (inactive); in the assay on OVCAR-3, 2.87 µM (inactive); in the assay with RXF 393, 2.31 µM (inactive); in the assay on SF-539 it was 3.38 µM (inactive); in the assay with SN12C it was 3.27 µM (inactive); with U-251 it was 1.77 µM (inactive). The GI50 in the assay with UO-31 is 1.64 µM (inactive).
Regarding `CS(=O)(=O)OCCCSCCSCCCOS(C)(=O)=O`, the GI50 in the assay on 786-0 was > 100 µM (inactive); with CCRF-CEM, > 100 µM (inactive); in the assay on HCC 2998, > 100 µM (inactive); in the assay with HCT-116, > 100 µM (inactive); in the assay on HOP-92 it was 40.2 µM (inactive); with K562, > 100 µM (inactive). Also, the GI50 with KM12, in the assay on LOX IMVI, with M14, in the assay on MCF7, in the assay with MOLT-4 and in the assay on NCI/ADR-RES was > 100 µM (inactive) each time. In addition, the GI50 in the assay with OVCAR-3, in the assay with SF-539, in the assay on SN12C, with U-251 and with UO-31 was > 100 µM (inactive) in each case.
As to `CC(C)(C)c1nc2c(o1)/C(=N\c1ccccc1)c1ccccc1C2=O`, the GI50 in the assay on 786-0 is 24.4 µM (inactive); in the assay with A498, 17.5 µM (inactive); in the assay with ACHN, 4.69 µM (inactive); in the assay on CCRF-CEM it was 5.61 µM (inactive); in the assay on HCC 2998, 18.6 µM (inactive); in the assay with HCT-116 it was 3.23 µM (inactive). For the same compound, the GI50 is 4.69 µM (inactive) in the assay with HOP-92; 3.55 µM (inactive) with K562; 11.7 µM (inactive) in the assay on KM12; 0.603 µM (active) in the assay on LOX IMVI; 2.33 µM (inactive) in the assay with M14; 3.95 µM (inactive) with MOLT-4. Besides, the GI50 in the assay on OVCAR-3 is 1.33 µM (inactive); with RXF 393 it was 4.91 µM (inactive); in the assay with SF-539 it was 2.99 µM (inactive); in the assay on SN12C, 3.64 µM (inactive); in the assay on U-251 it was 3.85 µM (inactive); in the assay on UO-31, 5.89 µM (inactive).
As to `CCOCc1cc(=O)c2cc3c(cc2o1)OC(C)(C)CC3`, the GI50 with 786-0, with A498, in the assay on ACHN, in the assay on CCRF-CEM, in the assay with HCC 2998 and in the assay on HCT-116 was > 100 µM (inactive) throughout. For the same compound, the GI50 with HOP-92 was 45.7 µM (inactive); in the assay on K562, 97.5 µM (inactive); with KM12, > 100 µM (inactive); with LOX IMVI, > 100 µM (inactive); in the assay on M14, > 100 µM (inactive); with MOLT-4 it was 55.5 µM (inactive). The GI50 was > 100 µM (inactive) with OVCAR-3; > 100 µM (inactive) in the assay with RXF 393; > 100 µM (inactive) in the assay with SF-539; > 100 µM (inactive) in the assay with SN12C; > 100 µM (inactive) in the assay on U-251; 92.9 µM (inactive) in the assay on UO-31.
As for `CC(C)(C)OC(=O)/C=C/C(=O)O/C=C/[N+](=O)[O-]`, the GI50 in the assay on 786-0, with A498, in the assay with ACHN, in the assay on CCRF-CEM, in the assay on HCC 2998 and with HCT-116 was > 100 µM (inactive) in each case. Moreover, the GI50 in the assay with HOP-92 was > 100 µM (inactive); with K562 it was 14.4 µM (inactive); in the assay with KM12, > 100 µM (inactive); in the assay with LOX IMVI, > 100 µM (inactive); in the assay on M14 it was > 100 µM (inactive); in the assay on MCF7, > 100 µM (inactive). The GI50 with OVCAR-3, in the assay with RXF 393, in the assay on SF-539, in the assay on SN12C, in the assay on U-251 and in the assay on UO-31 was > 100 µM (inactive) each time.
Take `Cc1cc(C)nc(NC(P(=O)(O)O)P(=O)(O)O)n1`: the GI50 with 786-0, with ACHN, in the assay on HCC 2998, with HCT-116, in the assay on KM12 and in the assay on LOX IMVI was > 100 µM (inactive) in each case. Also, the GI50 in the assay on M14, with MCF7, in the assay on NCI/ADR-RES, in the assay on OVCAR-3, with RXF 393 and in the assay on SF-539 was > 100 µM (inactive) each time. For the same compound, in the assay on UO-31, the GI50 was > 100 µM (inactive).
